Laboratory results as given in patent publication US7153535B2, “Protein sweetener” (Wisconsin Alumni Research Foundation, priority 2002, dated 2006).

How the values were obtained:
[1] = test system: taste fibers predominantly responsive to sweeteners (S fibers) in the Chorda Tympani (CT) nerves; assay: taste nerve fiber recordings during stimulation of the tongue; type: in vivo; details: fiber nerve recordings from rhesus monkey Chorda Tympani nerves, FIG. 4
Method: (§1) To test the sweetness potency of SEQ ID NOS. 3 and 5, we tested the perception of sweetness using a concentration of 100 ug/ml of the protein in water. One test panel consisted of monkeys. The other test panel was of humans. The response measured in the monkeys was level of activity of taste nerve fibers during the stimulation of the tongue with different compounds being tested. Humans were requested to score the sweetness sensations of the stimuli with a magnitude labeled scale in accordance with the techniques of B. Green et al., 21 Chemical Senses 323 (1996) (e.g. barely detectable; weak; moderate; strong; very strong; strongest imaginable).
We used rhesus monkey nerves as an animal model to test primate taste responses to sweet proteins. […] The triangle markings on FIG. 4 indicate exposure timing.

[2] = level of heat typically present during baking of foods; cited from earlier work
humans = assay: human panel sweetness scoring on a labeled magnitude scale; type: in vivo; details: 100 ug/ml of the protein in water; monkey and human test panels
Method: as §1

Brazzein: sweet protein; SEQ ID NO: 1 is natural Brazzein minus the beginning Glu, recombinantly produced wild type (DKCKKVYENYPVSKCQLANQCNYDCKLDKHARSGECFYDEKRNLQCICDYCEY; listed as Pentadiplandra brazzeana)
nerve response recording profile compared with sucrose [1]: more distinct
stability to heat [2]: stable

D29K: Brazzein variant in which the Asp at position 29 is replaced with Lys (DKCKKVYENYPVSKCQLANQCNYDCKLKKHARSGECFYDEKRNLQCICDYCEY)
sweetness relative to recombinantly produced wild type (des-pGlul) (humans): 3 to 4 times

D29N: Brazzein variant in which the Asp at position 29 is replaced with Asn (DKCKKVYENYPVSKCQLANQCNYDCKLNKHARSGECFYDEKRNLQCICDYCEY)
nerve response recording profile compared with sucrose [1]: remarkably close to that of sucrose
sweetness relative to recombinantly produced wild type (des-pGlul) (humans): 3 to 4 times

Glu36Ala: comparative Brazzein variant with Glu at position 36 replaced by Ala (QDKCKKVYENYPVSKCQLANQCNYDCKLDKHARSGACFYDEKRNLQCICDYCEY; UniProt P56552 1-54, looked up, variant E36A)
nerve response recording profile compared with sucrose [1]: more distinct
